The text below walks through data of US4169141A, “1-Peptidyl derivatives of di-O-aminoglycosyl-1,3-diaminocyclitol antibacterial agents” (priority 1978, dated 1979).

This assay relates to Pseudomonas infections caused by known producers of GAT I. Description: Mouse protection test, Pseudomonas infection. Format: in vivo, CF1 (Carworth Farms) mice. The following applies: CF1 mice 18 to 20 g. The protocol:
B. Mouse protection tests were performed in the usual manner using CF1 (Carworth Farms) mice weighing 18 to 20 g. each. […] Thus, the compounds of this invention may be used to control or eradicate susceptible bacterial strains in warm blooded animals, particularly in laboratory animals.

SMILES strings stand for the structures.

As for `CN[C@@H]1[C@@H](O)[C@@H](O[C@@H]2[C@@H](O)[C@H](O[C@H]3OC(CN)=CC[C@H]3N)[C@@H](N)C[C@H]2N)OC[C@]1(C)O` [sisomicin], the “protection (mouse protection test, PD50)” value is on record as “slight protection”.
